Source: paper PMC10923054, “Antiplasmodial peptaibols act through membrane directed mechanisms” (Cell Chemical Biology, 2024)

Assays:
[1] = tested on: P. falciparum asexual blood stage parasites grown in 0.5% Albumax II; experiment: Antiplasmodial activity with Albumax II media; assay type: cell-based; conditions: Plasmodium falciparum; RPMI with 0.5% Albumax II; mean ± SEM from 3 biological replicates
Method: (§1) Asexual blood stage parasites grown in the Chakrabarti laboratory were cultured based on a protocol by Trager and Jensen[57] with some modifications.[35] […] For comparison screening using serum vs Albumax II, culture media was changed from RPMI with 0.5% Albumax II to RPMI with 10% human serum and maintained for a minimum of 2 weeks prior to assay use.
(§2) Inhibitor EC50 determination in 3D7 and Dd2 was performed as discussed in,[35] based on established protocols.[60] Assays utilized asynchronous culture at 1% parasitemia, 1% hematocrit. Culture was incubated with compound dilutions for 72 h followed by freezing at −80°C to promote lysis, then thawing and incubation for 45 min–1 h with 1× SYBR Green I in a lysis buffer (20 mM Tris-HCL, 0.08% saponin, 5 mM EDTA, and 0.8% Triton X-100). Fluorescence was read 485 nm excitation, 530 nm emission on a Synergy Neo2 multimode reader (BioTek Winsooki, VT) and EC50 curves were generated using CDD Vault (https://www.collaborativedrug.com/).

[2] = concentrations up to 200 μM; propionate buffer pH 5.2, 16 h, 37°C; biological triplicate
Method: Assay plates were incubated at 37°C with gentle shaking for 16 h. A combination of 7.5% SDS in a 0.1 M bicarbonate buffer (pH 9.1) was then added to microtiter wells at a 1:3 ratio with gentle mixing. Plates were incubated for 10 min to allow crystals to settle before taking 50 μL of supernatant and adding it to 200 μL of 2.5% SDS in a 0.1 M bicarbonate buffer, pH 9.1. After mixing, absorbances were read at 405 nm on a Synergy Neo2 multimode reader (BioTek, Winsooki, VT). […] Images of the 200 μM treatment or control prior to SDS quenching were taken using a Nikon Eclipse TE200 inverted microscope.

[3] = tested on: P. falciparum asexual blood stage parasites grown in 10% human serum; experiment: Antiplasmodial activity with serum media; assay type: cell-based; conditions: Plasmodium falciparum, 336 h; RPMI with 10% human serum, maintained minimum 2 weeks; mean ± SEM from 3 biological replicates
Method: as §1, §2

[4] = tested on: wild-type YFP-expressing NF54; experiment: MDR1 compound susceptibility assay, control line; assay type: cell-based, P. falciparum; conditions: Plasmodium falciparum, NF54, MDR1, 72 h, read-out: IC50 in the wild-type YFP-expressing NF54
Method: (§3) As a control cell line, a parasite line expressing an aptamer-regulatable fluorescent protein integrated in the cg6 locus[84] was assayed in parallel. Synchronous ring-stage parasites in the presence (0.5 μM) and absence of aTc were dispensed into 384-well polystyrene microplates (Corning®), and compounds added using the Janus® platform (PerkinElmer). DMSO- and DHA (0.5 μM) served as normalization controls for maximal and minimum signal. Luminescence was measured after 72 h and IC50 values were obtained from normalized dose-response curves using GraphPad Prism Version 8.

PfMDR1 cKD parasite line = experiment: MDR1 compound susceptibility assay (Renilla luciferase); assay type: cell-based, P. falciparum
Source text: A conditional knockdown parasite line was generated for the P. falciparum multi-drug resistance 1 (MDR1; PF3D7_0523000) following previously described procedures.[84]^,[85] The native PfMDR1 locus was engineered using CRISPR/SpCas9 to afford transcriptional fusion of 10 tandem TetR-DOZI binding aptamers in the 3′UTR for anhydrotetracycline (aTc)-dependent regulation of PfMDR1 expression.
as §3

P. falciparum Dd2 = experiment: Phenotypic screen: asexual blood stage EC50 determination (SYBR Green I); assay type: cell-based; conditions: values in Data S1 (not shown)
Method: Asexual blood stage parasites grown in the Chakrabarti laboratory were cultured based on a protocol by Trager and Jensen[57] with some modifications.[35] Culture was maintained at 4% hematocrit with human A+ whole blood obtained from the Florida OneBlood, in RPMI 1640 supplemented with 25 mM HEPES pH 7.4, 26 mM NaHCO3, 2% dextrose, 15 mg/L hypoxanthine, 25 mg/L gentamycin, and 0.5% Albumax II. Incubator conditions remained at 37°C and 5% CO2, 5% O2, 90% N2, or 95% air. For comparison screening using serum vs Albumax II, culture media was changed from RPMI with 0.5% Albumax II to RPMI with 10% human serum and maintained for a minimum of 2 weeks prior to assay use.
as §2

CCN(CC)CCCC(C)Nc1ccnc2cc(Cl)ccc12 (stereo not shown) [CQ, chloroquine, reference compound]
EC50 [1]: 0.16 ± 0.01 µM
inhibition of β-hematin crystallization [2]: clear, dose-dependent inhibition
EC50 [3]: 0.1 ± 0.02 µM

OC(c1cc(C(F)(F)F)nc2c(C(F)(F)F)cccc12)C1CCCCN1 (stereo not shown) [mefloquine, reference compound]
IC50 [4]: 0.0004 µM
IC50 (PfMDR1 cKD parasite line; Plasmodium falciparum, MDR1, 72 h, read-out: IC50 when the protein was knocked down): 0.005 µM
shift in sensitivity upon PfMDR1 knockdown (PfMDR1 cKD parasite line; with (0.5 μM) vs without aTc, 72 h, luminescence): ~12 fold

Ac-Aib-L-Asn-L-Leu-L-Ile-Aib-L-Pro-D-Iva-L-Leu-Aib-L-Pro-L-Leu-NH2 [Harzianin HB I – amide, synthesized amide of an 11-AA peptaibol]
activity of new isomers relative to their original counterparts (P. falciparum Dd2): decreased inhibition
